In patent US12491182B2, “Polymorphs of triazole antifungal compound PC945” (Pulmocide Limited, priority 2019, dated 2025):
“And” between values parts separate entries of the source, which are not always exact repeats. Equal values may be shown once. Read-outs that look alike come from different tables or passages of the source.

Key:
[1] = Thermo-gravimetric analysis (degradation onset); type: physicochemical
Procedure: TGA data were collected on a TA Instrument Q500 TGA, equipped with a 16 position auto-sampler. The instrument was temperature calibrated using certified Alumel and Nickel. Typically 5-10 mg of sample was loaded onto a pre-tared aluminium DSC pan and heated at 10° C./min from ambient temperature to 350° C. A nitrogen purge at 60 mL/min was maintained over the sample. The instrument control software was Advantage for Q Series v2.5.0.256 and Thermal Advantage v5.5.3 and the data were analysed using Universal Analysis v4.5A.
TGA profiling was carried out according to methods described above and was used to determine the amount of residual solvents associated with the polymorphs of Compound I. In addition, it was used to measure the quantity of solvent released on heating from the solvated forms of Compound I. Typical residual solvent levels found in samples of the polymorphs of Compound I are as follows.

[2] = Comparative pharmacokinetic profiling of Forms 1 and 2 by inhalation administration to rats; type: in vivo, male RccHan:WIST rat; details: for Tmax: from start of exposure; for Drug Concentration in Animal by No. (plasma): individual animals; for AUCt dose normalised: AUCt of Form 2 normalised to dose achieved for Form 1 (2.48 mg/kg), 2.48 mg/kg; for time up to which plasma concentrations remained quantifiable: after the start of exposure (last sampling time)
Source text: A study was undertaken to compare the time-course of unchanged drug concentrations in plasma following a single inhalation dose of either Form 1 or Form 2 in rats.
The male RccHan™:WIST rat was considered a suitable species and strain because of its acceptance by regulatory agencies. The inhalation route of administration was chosen to simulate the conditions of clinical administration. A total of 14 of animals (six animals per group with two spare animals), 10 to 12 weeks of age and weighing 306 to 341 g at the start of drug treatment, were used in the study. Treatment consisted of a single 2 hour inhalation exposure with a nebulised formulation of either micronised Form 1 (98.94% purity) to Group 1 animals or micronised Form 2 (98.10% purity) to Group 2 animals. The pharmacokinetic parameters of the two polymorphic forms were determined to support pharmacology and toxicology studies in animals and clinical studies in man.
Suspensions were manufactured by first preparing a concentrated solution of the surfactants (wetting solution) and a saline solution. These were then used to make the vehicle. A saline solution was prepared as follows. Sodium chloride (50 g) was weighed into a 5000 mL volumetric flask, made up to volume with water, stirred with a magnetic stirrer for 10 min and then passed through a 0.22 μm membrane filter. Wetting solution was prepared as follows. Lipoid S100 (10 g) was weighed into a 2000 mL Duran bottle, 1000 g of propylene glycol was added and the mixture was stirred on a Silverson mixer equipped with a 1″ high shear screen for 1 min at 8000 rpm and then passed through a 0.22 μm membrane filter. Vehicle was prepared as follows. The wetting solution (500 mL) was transferred into a 5000 mL volumetric flask, made to volume with saline solution, stirred with a magnetic stirrer for 10 min and then passed through a 0.22 μm membrane filter.
A 1000 mL batch of 4 mg/mL suspension of Compound I was prepared as follows. Compound I (4.00 g) was weighed into a small beaker, 100 mL of wetting solution was added and the mixture was stirred with a Silverson mixer equipped with a 1″ high shear screen for 5 min at 8000 rpm. The mixture was then transferred into a 5000 mL Duran bottle using saline solution and stirred using a Silverson mixer equipped with a 1″ high shear screen for 5 min at 8000 rpm, after which it was stored between 2 and 8° C. Higher or lower strength suspensions (range 0.2 to 20 mg/mL) were prepared by adjusting the input weight of API as appropriate for higher mg/mL suspensions or by further diluting with vehicle for lower mg/mL suspensions. All formulations were magnetically stirred for at least 30 min, and assessed visually prior to administration.
Rats were acclimatised to the inhalation dosing procedure for three consecutive days prior to dosing. Animals were treated with the test substance by aerosol inhalation administration for 120 min via snout only exposure, at a target aerosol concentration of 25.2 μg/L. The estimations of inhaled dose from an exposure duration of 2 hr and an assumed body weight of 300 g were calculated using the formula:
[formula] where: C is the aerosol concentration (μg/L); RMV is the respiratory minute volume (L/min); D is the duration of exposure (120 mins) and BW is the group mean body weight (kg). The mean achieved aerosol concentrations, estimated inhaled dose and particle size distribution (PSD) summary data are presented below. (Table 14).
Venous blood samples (0.3 mL) were taken from the tail vein of animals and samples collected after dosing (2 hr from the start of dose administration) and thereafter at times 3, 4, 6, 8, 12, 24, 28, 32, 36 and 48 hr following treatment. Samples were treated with K2EDTA anticoagulant, spun at 2000 g for 10 min at 4° C. and then stored frozen (−20° C.±10) whilst awaiting analysis. Plasma samples were subsequently analysed for Compound I by LGC using a validated LC-MS/MS method. […]

[3] = male rats, inhalation, nominal 2.2 mg/kg, 3 hr from start of exposure
[4] = male rats, inhalation, nominal 2.2 mg/kg, 4 hr from start of exposure
[5] = male rats, inhalation, nominal 2.2 mg/kg, 6 hr from start of exposure
[6] = male rats, inhalation, nominal 2.2 mg/kg, 8 hr from start of exposure
[7] = male rats, inhalation, nominal 2.2 mg/kg, 8 hr, group mean
[8] = male rats, inhalation, nominal 2.2 mg/kg, 12 hr from start of exposure
[9] = male rats, inhalation, nominal 2.2 mg/kg, 24 hr from start of exposure
[10] = male rats, inhalation, nominal 2.2 mg/kg, 28 hr from start of exposure
[11] = male rats, inhalation, nominal 2.2 mg/kg, 32 hr from start of exposure
[12] = male rats, inhalation, nominal 2.2 mg/kg, 32 hr, group mean
[13] = male rats, inhalation, nominal 2.2 mg/kg, 36 hr from start of exposure
[14] = male rats, inhalation, nominal 2.2 mg/kg, 36 hr, group mean
[15] = male rats, inhalation, nominal 2.2 mg/kg, 48 hr from start of exposure
[16] = male rats, inhalation, nominal 2.2 mg/kg, IAD (immediately after dosing), group mean
[17] = male rats, inhalation, nominal 2.2 mg/kg, IAD (immediately after dosing)

SMILES | Drug Concentration in Animal by No. (plasma) [2, 3] | Drug Concentration in Animal by No. (plasma) [2, 4] | Drug Concentration in Animal by No. (plasma) [2, 5] | Drug Concentration in Animal by No. (plasma) [2, 6] | Drug Concentration Mean (plasma) [2, 7] [ng/mL] | Drug Concentration in Animal by No. (plasma) [2, 8] | Drug Concentration in Animal by No. (plasma) [2, 9] | Drug Concentration in Animal by No. (plasma) [2, 10] | Drug Concentration in Animal by No. (plasma) [2, 11] | Drug Concentration Mean (plasma) [2, 12] [ng/mL] | Drug Concentration in Animal by No. (plasma) [2, 13] | Drug Concentration Mean (plasma) [2, 14] [ng/mL] | Drug Concentration in Animal by No. (plasma) [2, 15] | Drug Concentration Mean (plasma) [2, 16] [ng/mL] | Drug Concentration in Animal by No. (plasma) [2, 17] | AUCt dose normalised ([2]; male rats, inhalation) [ng·h/mL] | time up to which plasma concentrations remained quantifiable ([2]; male rats, inhalation) [h] | also measured
Cc1cc(N2CCN(c3ccc(C(=O)Nc4ccc(F)cc4)cc3)CC2)ccc1OC[C@@H]1CO[C@@](Cn2cncn2)(c2ccc(F)cc2F)C1 [Form 1, 4-(4-(4-(((3R,5R)-5-((1H-1,2,4-triazol-1-yl)methyl)-5-(2,4-difluorophenyl)tetrahydrofuran-3-yl)methoxy)-3-methylphenyl)piperazin-1-yl)-N-(4-fluorophenyl)benzamide] | 5.31 ng/mL and 4.35 ng/mL and 2.41 ng/mL | 4.73 ng/mL and 6.32 ng/mL and 3.78 ng/mL | 5.38 ng/mL and 3.97 ng/mL and 5.49 ng/mL | 3.28 ng/mL and 2.88 ng/mL | 3.08 | 4.05 ng/mL and 3.64 ng/mL | 2.47 ng/mL and 3.00 ng/mL and 3.85 ng/mL and 2.75 ng/mL and 2.02 ng/mL and 3.03 ng/mL | 1.85 ng/mL and 2.22 ng/mL and 3.92 ng/mL and 1.87 ng/mL and 2.04 ng/mL | 1.36 ng/mL and 1.85 ng/mL and 2.79 ng/mL and 1.66 ng/mL and 2.20 ng/mL and 1.32 ng/mL | 1.86 | 1.21 ng/mL and 1.36 ng/mL and 1.74 ng/mL and 1.70 ng/mL and 1.01 ng/mL and 1.80 ng/mL | 1.47 | 1.10 ng/mL and 1.45 ng/mL and 1.28 ng/mL and 1.26 ng/mL and 1.19 ng/mL | 1.11 | 1.16 ng/mL and 0.826 ng/mL and 1.35 ng/mL | 122 | 48 | temperature from which degradation was evident (TGA) ([1]; sample prepared from toluene): 320 °C; Tmax ([2]; RccHan:WIST, rat, plasma, inhaled or intranasal, male rats, single 2 hr inhalation, nominal dose 2.2 mg/kg, read-out: Tmax): 6 h; Cmax ([2]; male, RccHan:WIST, rat, plasma, inhaled or intranasal, 2.2 mg/kg, single 2 hr inhalation of nebulised aqueous suspension, nominal dose 2.2 mg/kg, read-out: Cmax (maximum mean plasma concentration)): 4.95 ng/mL; AUC(0-t) ([2]; male, RccHan:WIST, rat, plasma, inhaled or intranasal, 2.2 mg/kg, single 2 hr inhalation, nominal dose 2.2 mg/kg, 0-48 hr): 122 ng·h/mL; concentration at 3 h ([2]; male, RccHan:WIST, rat, plasma, inhaled, 2.2 mg/kg, inhalation, nominal 2.2 mg/kg, 3 hr, group mean, read-out: Drug Concentration Mean (plasma)): 4.02 ng/mL; concentration at 4 h ([2]; male, RccHan:WIST, rat, plasma, inhaled, 2.2 mg/kg, inhalation, nominal 2.2 mg/kg, 4 hr, group mean, read-out: Drug Concentration Mean (plasma)): 4.94 ng/mL; concentration at 6 h ([2]; male, RccHan:WIST, rat, plasma, inhaled, 2.2 mg/kg, inhalation, nominal 2.2 mg/kg, 6 hr, group mean, read-out: Drug Concentration Mean (plasma)): 4.95 ng/mL; concentration at 12 h ([2]; male, RccHan:WIST, rat, plasma, inhaled, 2.2 mg/kg, inhalation, nominal 2.2 mg/kg, 12 hr, group mean, read-out: Drug Concentration Mean (plasma)): 3.85 ng/mL; concentration at 24 h ([2]; male, RccHan:WIST, rat, plasma, inhaled, 2.2 mg/kg, inhalation, nominal 2.2 mg/kg, 24 hr, group mean, read-out: Drug Concentration Mean (plasma)): 2.85 ng/mL; concentration at 28 h ([2]; male, RccHan:WIST, rat, plasma, inhaled, 2.2 mg/kg, inhalation, nominal 2.2 mg/kg, 28 hr, group mean, read-out: Drug Concentration Mean (plasma)): 2.38 ng/mL; concentration at 48 h ([2]; male, RccHan:WIST, rat, plasma, inhaled, 2.2 mg/kg, inhalation, nominal 2.2 mg/kg, 48 hr, group mean, read-out: Drug Concentration Mean (plasma)): 1.26 ng/mL
Cc1cc(N2CCN(c3ccc(C(=O)Nc4ccc(F)cc4)cc3)CC2)ccc1OC[C@@H]1CO[C@@](Cn2cncn2)(c2ccc(F)cc2F)C1 [Form 2, 4-(4-(4-(((3R,5R)-5-((1H-1,2,4-triazol-1-yl)methyl)-5-(2,4-difluorophenyl)tetrahydrofuran-3-yl)methoxy)-3-methylphenyl)piperazin-1-yl)-N-(4-fluorophenyl)benzamide] | 8.95 ng/mL and 5.40 ng/mL and 6.01 ng/mL | 7.53 ng/mL and 9.31 ng/mL and 8.88 ng/mL | 11.8 ng/mL and 5.38 ng/mL | 6.85 ng/mL and 5.90 ng/mL and 6.79 ng/mL | 6.51 | 10.7 ng/mL and 4.57 ng/mL and 5.84 ng/mL | 11.5 ng/mL | 8.15 ng/mL and 3.17 ng/mL and 3.32 ng/mL and 4.15 ng/mL and 2.94 ng/mL and 2.93 ng/mL | 7.72 ng/mL and 3.50 ng/mL and 3.33 ng/mL and 4.05 ng/mL and 2.75 ng/mL and 2.51 ng/mL | 3.98 | 6.28 ng/mL and 2.43 ng/mL (2×) and 2.54 ng/mL and 3.59 ng/mL and 2.49 ng/mL | 3.29 | 3.78 ng/mL and 1.79 ng/mL and 1.89 ng/mL and 2.52 ng/mL and 1.83 ng/mL and 1.91 ng/mL | 2.66 | 2.24 ng/mL and 2.59 ng/mL and 3.15 ng/mL | 202 | 48 | temperature at which sample begun to degrade (TGA) ([1]; material isolated from MIBK): 320 °C; temperature at which degradation started (TGA) ([1]; sample derived from EtOH): 320 °C; dose normalised AUCt, fold higher than Form 1 ([2]; male rats, inhalation): 1.7 fold; Drug Concentration Mean (plasma) ([2]; male rats, inhalation, nominal 2.2 mg/kg, 3 hr, group mean): 6.79 ng/mL; Drug Concentration Mean (plasma) ([2]; male rats, inhalation, nominal 2.2 mg/kg, 4 hr, group mean): 8.57 ng/mL; Drug Concentration Mean (plasma) ([2]; male rats, inhalation, nominal 2.2 mg/kg, 6 hr, group mean): 8.59 ng/mL; Drug Concentration Mean (plasma) ([2]; male rats, inhalation, nominal 2.2 mg/kg, 12 hr, group mean): 7.04 ng/mL; Drug Concentration Mean (plasma) ([2]; male rats, inhalation, nominal 2.2 mg/kg, 28 hr, group mean): 4.11 ng/mL; Drug Concentration Mean (plasma) ([2]; male rats, inhalation, nominal 2.2 mg/kg, 48 hr, group mean): 2.29 ng/mL; Cmax (maximum mean plasma concentration) ([2]; male rats, single 2 hr inhalation of nebulised aqueous suspension, nominal dose 2.2 mg/kg, 2.2 mg/kg): 8.59 ng/mL; AUCt ([2]; male rats, single 2 hr inhalation, nominal dose 2.2 mg/kg, 0-48 hr, 2.2 mg/kg): 230 ng·h/mL; Tmax ([2]; male rats, single 2 hr inhalation, nominal dose 2.2 mg/kg): 6 h
